Patent US7524968B2, “2-pyridinylcycloalkylbenzamide derivatives and their use as fungicides” (Bayer Cropscience S.A., priority 2004, dated 2009)

What was measured:
Conditions in all cases: 330 ppm; result in words
Peronospora parasitica = assay: Efficacy against Peronospora parasitica (comparison compound of WO 01/11965); format: in vivo
Alternaria brassicae = assay: In vivo test on Alternaria brassicae (leaf spot of crucifers) on radish plants
Experimental: The active ingredient tested is prepared by potter homogenization in a concentrated suspension type formulation at 100 g/l. This suspension is then diluted with water to obtain the desired active material concentration.
Radish plants (Pernot variety) in starter cups, sown on a 50/50 peat soil-pozzolana substrate and grown at 18-20° C., are treated at the cotyledon stage by spraying with the aqueous suspension described above.
Plants, used as controls, are treated with an aqueous solution not containing the active material.
After 24 hours, the plants are contaminated by spraying them with an aqueous suspension of Alternaria brassicae spores (40,000 spores per cm^3). The spores are collected from a 12-13-day-old culture.
The contaminated radish plants are incubated for 6-7 days at about 18° C., under a humid atmosphere.
Grading is carried out 6 to 7 days after the contamination, in comparison with the control plants.

Botrytis cinerea = assay: Effectiveness on Botrytis cinerea (comparison compounds of WO 01/11965); format: in vivo

Row | Structure (SMILES) | efficacy against Peronospora parasitica (Peronospora parasitica) | effectiveness on Alternaria brassicae (Alternaria brassicae) | effectiveness on Botrytis cinerea (Botrytis cinerea)
1 | O=C(Cc1cccs1)NCc1ncc(C(F)(F)F)cc1Cl [compound 101, N-{[3-chloro-5-(trifluoromethyl)-2-pyridinyl]methyl}-5-thienylacetamide] | no efficacy | poor efficacy | no efficacy
2 | CCNC(=O)C(Cc1ncc(C(F)(F)F)cc1Cl)NC(=O)c1ccccc1 (stereo not drawn) [compound 304, N-{1-ethylcarbamoyl-2-[3-chloro-5-(trifluoromethyl)-2-pyridinyl]-ethyl}-benzamide] | – | – | zero effectiveness
3 | CCNC(=O)C(Cc1ncc(C(F)(F)F)cc1Cl)NC(=O)c1ccc(Cl)cc1 (stereo not drawn) [compound 306, N-{1-ethylcarbamoyl-2-[3-chloro-5-(trifluoromethyl)-2-pyridinyl]ethyl}-4-chlorobenzamide] | – | – | zero effectiveness
4 | CCNC(=O)C(Cc1ncc(C(F)(F)F)cc1Cl)NC(=O)c1cccc([N+](=O)[O-])c1 (stereo not drawn) [compound 307, N-{1-ethylcarbamoyl-2-[3-chloro-5-(trifluoromethyl)-2-pyridinyl]ethyl}-3-nitrobenzamide] | – | poor effectiveness | zero effectiveness
5 | CCNC(=O)C(Cc1ncc(C(F)(F)F)cc1Cl)NC(=O)c1ccccc1Br (stereo not drawn) [compound 310, N-{1-ethylcarbamoyl-2-[3-chloro-5-(trifluoromethyl)-2-pyridinyl]ethyl}-2-bromobenzamide] | – | – | zero effectiveness
6 | CNC(=O)C(Cc1ncc(C(F)(F)F)cc1Cl)NC(=O)c1ccccc1 (stereo not drawn) [compound 314, N-{1-methylcarbamoyl-2-[3-chloro-5-(trifluoromethyl)-2-pyridinyl]ethyl}-benzamide] | – | – | zero effectiveness
7 | CNC(=O)C(Cc1ncc(C(F)(F)F)cc1Cl)NC(=O)c1ccc(OC)cc1 (stereo not drawn) [compound 315, N-{1-methylcarbamoyl-2-[3-chloro-5-(trifluoromethyl)-2-pyridinyl]ethyl}-4-methoxybenzamide] | – | – | zero effectiveness
8 | CNC(=O)C(Cc1ncc(C(F)(F)F)cc1Cl)NC(=O)c1ccc(-c2ccccc2)cc1 (stereo not drawn) [compound 316, N-{1-methylcarbamoyl-2-[3-chloro-5-(trifluoromethyl)-2-pyridinyl]-ethyl}-4-phenylbenzamide] | – | poor effectiveness | zero effectiveness
